The record followed here is PubChem BioAssay AID248 (DTP/NCI, 2004).

Values joined by “and” are separate entries in the source; they are usually repeats but may differ in a detail not shown here. Equal values may be shown once. Inconclusive results and toxic doses are left out.

The assay concerns L1210 leukemia ip in BDF1 mice, survival T/C. As to the kind of experiment: NCI In Vivo Anticancer Drug Screen. Data for tumor model L1210 Leukemia (intraperitoneal) in B6D2F1 (BDF1) mice. The settings on record: endpoint: mean survival time, higher = longer survival. In a few lines: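 Mice bearing the transplanted tumor received compound or vehicle. Survival of the treated group was divided by that of the vehicle-treated control group to give the ratio.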

Setting [1] is: dose: 100.0 mg/kg/injection, schedule: Q01DX009 (ip), vehicle: Klucel (hydroxypropylcellulose) (HPC).

Regarding `O=NN(CCF)C(=O)NC1CCS(=O)(=O)CC1`, the T/C is, setting by setting: (dose: 1.12 mg/kg/injection, schedule: Q01DX015 (ip), vehicle: other) 119 % of control; (dose: 1.76 mg/kg/injection, schedule: Q01DX015 (ip), vehicle: other) 179 % of control; (dose: 1.9 mg/kg/injection, schedule: Q01DX001 (ip), vehicle: saline with Tween-80) 201 % of control; (dose: 2.0 mg/kg/injection, schedule: Q01DX001 (ip), vehicle: other) 118 % of control; (dose: 2.68 mg/kg/injection, schedule: Q01DX015 (ip), vehicle: other) 309 % of control and 311 % of control; (dose: 3.52 mg/kg/injection, schedule: Q02DX008 (ip), vehicle: other) 231 % of control and 246 % of control. The T/C reads like this: (dose: 3.75 mg/kg/injection, schedule: Q01DX001 (ip), vehicle: other) 160 % of control; (dose: 3.8 mg/kg/injection, schedule: Q01DX001 (ip), vehicle: saline with Tween-80) 207 % of control; (dose: 4.0 mg/kg/injection, schedule: Q01DX015 (ip), vehicle: other) 422 % of control and 644 % of control; (dose: 4.7 mg/kg/injection, schedule: Q## X004 (ip), vehicle: other) 268 % of control; (dose: 5.0 mg/kg/injection, schedule: Q01DX001 (ip), vehicle: other) 163 % of control; (dose: 5.36 mg/kg/injection, schedule: Q02DX008 (ip), vehicle: other) 484 % of control and 538 % of control. In addition, the T/C is 261 % of control (dose: 5.6 mg/kg/injection, schedule: Q## X032 (ip), vehicle: other); 290 % of control and 433 % of control (dose: 6.0 mg/kg/injection, schedule: Q01DX015 (ip), vehicle: other); 153 % of control (dose: 6.0 mg/kg/injection, schedule: Q## X032 (ip), vehicle: other); 519 % of control and 532 % of control (dose: 7.0 mg/kg/injection, schedule: Q## X004 (ip), vehicle: other); 302 % of control (dose: 7.5 mg/kg/injection, schedule: Q01DX001 (ip), vehicle: other); 557 % of control (dose: 7.5 mg/kg/injection, schedule: Q01DX001 (ip), vehicle: saline with Tween-80). In addition, the T/C (dose: 8.0 mg/kg/injection, schedule: Q01DX001 (ip), vehicle: other) is 186 % of control; the T/C (dose: 8.0 mg/kg/injection, schedule: Q02DX008 (ip), vehicle: other) was 426 % of control and 715 % of control; the T/C (dose: 9.0 mg/kg/injection, schedule: Q01DX015 (ip), vehicle: other) was 339 % of control; the T/C (dose: 9.4 mg/kg/injection, schedule: Q01DX001 (ip), vehicle: other) is 364 % of control; the T/C (dose: 10.0 mg/kg/injection, schedule: Q01DX001 (ip), vehicle: other) is 340 % of control; the T/C (dose: 10.7 mg/kg/injection, schedule: Q## X004 (ip), vehicle: other) was 605 % of control and 650 % of control. In addition, the T/C was 330 % of control and 476 % of control (dose: 12.0 mg/kg/injection, schedule: Q02DX008 (ip), vehicle: other); 468 % of control (dose: 13.0 mg/kg/injection, schedule: Q## X032 (ip), vehicle: other); 577 % of control and 580 % of control (dose: 14.0 mg/kg/injection, schedule: Q01DX001 (ip), vehicle: other); 365 % of control (dose: 15.0 mg/kg/injection, schedule: Q01DX001 (ip), vehicle: other); 666 % of control (dose: 15.0 mg/kg/injection, schedule: Q01DX001 (ip), vehicle: saline with Tween-80); 315 % of control (dose: 16.0 mg/kg/injection, schedule: Q01DX001 (ip), vehicle: other). Moreover, the T/C is, setting by setting: (dose: 16.0 mg/kg/injection, schedule: Q## X004 (ip), vehicle: other) 365 % of control and 580 % of control; (dose: 18.0 mg/kg/injection, schedule: Q02DX008 (ip), vehicle: other) 326 % of control; (dose: 19.0 mg/kg/injection, schedule: Q## X032 (ip), vehicle: other) 180 % of control and 430 % of control; (dose: 20.0 mg/kg/injection, schedule: Q01DX001 (ip), vehicle: other) 365 % of control; (dose: 24.0 mg/kg/injection, schedule: Q## X004 (ip), vehicle: other) 231 % of control and 271 % of control; (dose: 29.0 mg/kg/injection, schedule: Q## X032 (ip), vehicle: other) 115 % of control. Besides, the T/C is 365 % of control (dose: 30.0 mg/kg/injection, schedule: Q01DX001 (ip), vehicle: other); 677 % of control (dose: 30.0 mg/kg/injection, schedule: Q01DX001 (ip), vehicle: saline with Tween-80); 315 % of control (dose: 31.0 mg/kg/injection, schedule: Q01DX001 (ip), vehicle: other); 253 % of control (dose: 36.0 mg/kg/injection, schedule: Q## X004 (ip), vehicle: other); 334 % of control (dose: 40.0 mg/kg/injection, schedule: Q01DX001 (ip), vehicle: other).

In the case of `CCOC(=O)C(C(C)=O)C(c1ccc2c(c1)OCO2)C(C(C)=O)C(=O)O` (stereo unspecified), the T/C (dose: 25.6 mg/kg/injection, schedule: Q04DX002 (ip), vehicle: saline with Tween-80) is 100 % of control; the T/C (dose: 64.0 mg/kg/injection, schedule: Q04DX002 (ip), vehicle: saline with Tween-80) is 96 % of control; the T/C (dose: 160.0 mg/kg/injection, schedule: Q04DX002 (ip), vehicle: saline with Tween-80) is 103 % of control; the T/C (dose: 400.0 mg/kg/injection, schedule: Q04DX002 (ip), vehicle: saline with Tween-80) is 107 % of control.

Consider `CCOC(=O)c1ccc(NCC2=Nc3c(N)nc(N)nc3NC2)cc1`, for which the T/C (dose: 3.0 mg/kg/injection, schedule: Q01DX009 (ip), vehicle: Klucel (hydroxypropylcellulose) (HPC)) is 92 % of control; the T/C (dose: 6.0 mg/kg/injection, schedule: Q01DX009 (ip), vehicle: Klucel (hydroxypropylcellulose) (HPC)) is 97 % of control; the T/C (dose: 12.0 mg/kg/injection, schedule: Q01DX009 (ip), vehicle: Klucel (hydroxypropylcellulose) (HPC)) is 101 % of control and 108 % of control; the T/C (dose: 25.0 mg/kg/injection, schedule: Q01DX009 (ip), vehicle: Klucel (hydroxypropylcellulose) (HPC)) is 97 % of control; the T/C (dose: 50.0 mg/kg/injection, schedule: Q01DX009 (ip), vehicle: Klucel (hydroxypropylcellulose) (HPC)) is 90 % of control; the T/C under setting [1] was 89 % of control.

As for `BrC1C2CCC(CC2)C1Br` (stereo unspecified), the T/C reads like this: under setting [1], 92 % of control; (dose: 100.0 mg/kg/injection, schedule: Q04DX003 (ip), vehicle: Klucel (hydroxypropylcellulose) (HPC)) 100 % of control; (dose: 200.0 mg/kg/injection, schedule: Q01DX009 (ip), vehicle: Klucel (hydroxypropylcellulose) (HPC)) 92 % of control; (dose: 200.0 mg/kg/injection, schedule: Q04DX003 (ip), vehicle: Klucel (hydroxypropylcellulose) (HPC)) 100 % of control; (dose: 400.0 mg/kg/injection, schedule: Q01DX009 (ip), vehicle: Klucel (hydroxypropylcellulose) (HPC)) 94 % of control; (dose: 400.0 mg/kg/injection, schedule: Q04DX003 (ip), vehicle: Klucel (hydroxypropylcellulose) (HPC)) 96 % of control.

For the molecule `CSc1nc(N)nc2c1nc(SC)n2C1OC(CO)C(O)C1O` (stereo unspecified), the T/C (dose: 100.0 mg/kg/injection, schedule: Q01DX005 (ip), vehicle: saline) is 102 % of control and the T/C (dose: 200.0 mg/kg/injection, schedule: Q01DX005 (ip), vehicle: saline) is 94 % of control.

For `CC/C(CC(C)CC)=N\O` (stereo unspecified), the T/C is, setting by setting: (dose: 100.0 mg/kg/injection, schedule: Q01DX009 (ip), vehicle: saline) 101 % of control; (dose: 100.0 mg/kg/injection, schedule: Q04DX003 (ip), vehicle: saline) 93 % of control; (dose: 200.0 mg/kg/injection, schedule: Q01DX009 (ip), vehicle: saline) 101 % of control; (dose: 200.0 mg/kg/injection, schedule: Q04DX003 (ip), vehicle: saline) 98 % of control; (dose: 400.0 mg/kg/injection, schedule: Q01DX009 (ip), vehicle: saline) 101 % of control; (dose: 400.0 mg/kg/injection, schedule: Q04DX003 (ip), vehicle: saline) 91 % of control.

As to `CC(=O)Nc1nc(C)c(CCCN(c2ccccc2)S(=O)(=O)c2ccc(N)cc2)c(=O)[nH]1`, where the note is “dose: 200.0 mg/kg/injection, schedule: Q01DX001 (ip), vehicle: Klucel (hydroxypropylcellulose) (HPC)”, the T/C is 88 % of control.

Take `CCCCCCC[n+]1cccc(C#N)c1`: the T/C is, setting by setting: (dose: 37.5 mg/kg/injection, schedule: Q04DX003 (ip), vehicle: saline) 96 % of control; (dose: 75.0 mg/kg/injection, schedule: Q01DX001 (ip), vehicle: saline) 96 % of control; (dose: 75.0 mg/kg/injection, schedule: Q04DX003 (ip), vehicle: saline) 98 % of control; (dose: 150.0 mg/kg/injection, schedule: Q01DX001 (ip), vehicle: saline) 100 % of control; (dose: 150.0 mg/kg/injection, schedule: Q04DX003 (ip), vehicle: saline) 95 % of control.
